The record followed here is patent publication US12703728B2, “Interleukin 29 mutant protein” (priority 2020, dated 2026).

Where a chain is given by its changes, count along the chain named. Like-named read-outs stand apart in the source and are kept apart here.

Data set [1] relates to respiratory syncytial virus. The experiment in a line: In vitro efficacy on RSV-infected human bronchial epithelial cells (HBEC). Type of data set: cell-based. The settings on record: for Average inhibition rate (%): HBEC, RSV. On the procedure: RSV with a titer of 100, TCID50 (half of the infective dose of tissue culture) was added to each of the activity test wells, culturing the cells in 37° C. and 5% CO2 incubator for 3 days, then RSV RNA was extracted from the cells by using the RNA Extraction Kit (Catlog: 74181, Qiagen), and quantified by RT-qPCR.

A further data set concerns novel coronavirus. The experiment in a line: organism not typed. Type of data set: cell-based, African green monkey.
Data set [2] can be described thus: Toxic effects on Vero cells by CCK-8 assay. Conditions: African green monkey, Vero cells. On the technique in general: Tetrazolium assays rely on reduction of a dye to a coloured formazan, in cell work by metabolically active cells.
For another data set, the system named is Vero cells. Kind of data set: Toxic effects on Vero cells by CCK-8 assay. Conditions: 50 μmol/L and below, 48 h, CCK-8.
The nature of data set [3]: Stability of IL29 mutants at 50° C. Conditions: 50° C./75% relative humidity, reporter gene method. The class given is physicochemical. For orientation: A reporter such as luciferase makes a cellular process visible.
The next data set deals with HEK293-ISRE-Luc cells. The class given is cell-based. Conditions: for EC50: HEK293-ISRE-Luc reporter gene method; for EC50/biological activity as compared with IL29 control (in words): reporter gene method. The text has this:
The reporter gene method refers to ligating the promoter of interferon-stimulated response element (ISRE) to alkaline phosphatase cDNA, and transfecting them into HEK293 cells, and evaluating IL29 activity by measuring alkaline phosphatase in supernatant of HEK293 cells after IL29 stimulation (LaFleur D W, Nardelli B, Tsareva T Et al. Interferon-kappa, a novel type I interferon expressed in human keratinocytes. [J]. J. Biol. Chem., 2001, 276:39765-71).
HEK293-ISRE-Luc cells (purchased from National institutes for Food and Drug Control) were allowed to grow adherently in complete culture medium. The cells were passaged at a ratio of 1:4, 2-3 times per week, growing in complete culture medium. The cultured cells were taken to discard the culture medium, and the cells were washed once with PBS and then digested and collected; and the cell suspension containing 3.5×10^5 to 4.5×10^5 cells per 1 ml was prepared with assay culture medium (BIBCO).

Data set [4] is described as follows: Stability of IL29 mutants at 50° C. Conditions: 50° C./75% relative humidity; for Reduction on Day 14 as compared with Point 0 (%): reversed-phase HPLC main peak. Type of data set: physicochemical. As to the method:
(§1) The mobile phase A (acetonitrile:water:trifluoroacetic acid, in the volume ratio of 20:80:0.1) and the mobile phase B (acetonitrile:water:isopropanol:trifluoroacetic acid, in the volume ratio of 70:20:10:0.1) were prepared; and a chromatographic column (XBridge BEH C18 Column, 130A, 5 μm, 4.6 mm*100 mm) was used to analyze each test sample of proteins. The analytical conditions were as follows: flow rate 1.0 ml/min, acquisition time: 65 min, acquisition wavelength 214 nm, column temperature 45° C., and elution gradient as shown in Table 1 below.
Two injections of stock solution of a test sample were loaded in parallel, and the loading volume was set as15 μg-20 μg according to the sample concentration; finally, the purity of the main peak of the test sample was calculated by integrating according to the area normalization method.
The details are shown in Table 5, while the purity values at day 0 and 14 in Table 5 were used to make contrast chromatogram, as shown in FIGS. 3-10.

Data set [5] is classed as physicochemical. Conditions: 25° C./60% relative humidity/5000 lux. As to the method: as §1
The mobile phase A (25 mmol/L phosphate buffer, pH 7.0) and mobile phase B (25 mmol/L phosphate buffer, 0.5 mol/L sodium chloride, pH 6.7) were prepared, and a chromatographic column (Thermo ProPac WCX-10 4.0*250 mm) was used to analyze each test sample of proteins. The analytical conditions were as follows: flow rate 0.8 ml/min, acquisition time: 55 min, acquisition wavelength 214 nm, column temperature 25° C., and elution gradient as shown in Table 2 below.
The stability of IL29 mutants was detected under the condition 25° C.±2° C./60% relative humidity ±5% relative humidity/5000±500 lux, samples were taken according to Table 6, and the same method in Example 2 was used to detect the stability of IL29 mutants.

Data set [6] is described as follows: Nebulization stability test.
Procedure: A jet nebulizer of PARI LCD type and TurboBOY N nebulizer pump from Germany were used for nebulization tests. 2 ml of sample was nebulized, and aerosol was collected in the manner below according to FIG. 11; as for the collected sample, the purity of each test sample of IL29 mutants was detected according to the same method as in Example 2.2.1 by reversed-phase high performance liquid phase, thereby verifying the nebulization stability of each mutant.
[7] abbreviates: Positive control group, 0.03 μM.

The term EC50 denotes the concentration giving half of the maximal effect. Read a high EC50 as lower potency in that assay. Usually inhibition stands for how much of the control response was suppressed. Broadly, the IC50 is the concentration that gives 50% inhibition. Lower therefore signals inhibition by little substance. For orientation: CC50 means the concentration giving 50% cytotoxicity. A higher CC50 goes with lower toxicity to the cells.

In [1] (HBEC cell model, RSV RNA by RT-qPCR), `O=c1n(Cc2nc3ccccc3n2CCCCO)c2cnccc2n1C1CC1` [BMS-433771] returned an EC50 of 213 nM. Moreover, the “Average inhibition rate (%)” value in [1] (10 nM) is 31.65%; in data set [1] (50 nM), 29.30%; in [1] (250 nM), 85.31%; in data set [1] (1250 nM) it was 97.91%.
As for `CCC(CC)COC(=O)[C@H](C)N[P@](=O)(OC[C@H]1O[C@@](C#N)(c2ccc3c(N)ncnn23)[C@H](O)[C@@H]1O)Oc1ccccc1` [Remdesivir], the “Ct Value 1” value worked out at 17.05 in the data set on novel coronavirus (setting [7]); 17.63 with novel coronavirus (Positive control group, 0.1 μM); 20.83 with novel coronavirus (Positive control group, 0.3 μM); 27.63 in the data set on novel coronavirus (Positive control group, 1 μM); 30.57 in the data set with novel coronavirus (Positive control group, 3 μM); 34.85 in the data set on novel coronavirus (Positive control group, 10 μM). The “Ct Value 2” value was 16.86 with novel coronavirus (setting [7]); 17.75 in the data set with novel coronavirus (Positive control group, 0.1 μM); 20.76 with novel coronavirus (Positive control group, 0.3 μM); 26.97 in the data set with novel coronavirus (Positive control group, 1 μM); 33.96 with novel coronavirus (Positive control group, 3 μM); 33.56 in the data set on novel coronavirus (Positive control group, 10 μM). Also, the “Ct Value 3” value in the data set on novel coronavirus (setting [7]) stood at 17.71; with novel coronavirus (Positive control group, 0.1 μM) it was 17.57; in the data set with novel coronavirus (Positive control group, 0.3 μM), 19.75; in the data set on novel coronavirus (Positive control group, 1 μM) it was 26.91; in the data set with novel coronavirus (Positive control group, 3 μM), 33.11; in the data set on novel coronavirus (Positive control group, 10 μM) it was 34.75. Further, the “Ct Value Mean” value with novel coronavirus (setting [7]) is 17.21; in the data set on novel coronavirus (Positive control group, 0.1 μM), 17.65; with novel coronavirus (Positive control group, 0.3 μM) it was 20.45; in the data set with novel coronavirus (Positive control group, 1 μM), 27.17; in the data set with novel coronavirus (Positive control group, 3 μM), 32.55; with novel coronavirus (Positive control group, 10 μM), 34.39. The inhibition at 0.03 µM in the data set with novel coronavirus (Vero, Positive control group, 0.03 μM, read-out: Average inhibition rate (%)) was 17.5%. Further, the inhibition at 0.1 µM with novel coronavirus (Vero, Positive control group, 0.1 μM, read-out: Average inhibition rate (%)) was 39.3%. In addition, the inhibition at 0.3 µM in the data set with novel coronavirus (Vero, Positive control group, 0.3 μM, read-out: Average inhibition rate (%)) worked out at 91.3%. For the same molecule, the inhibition at 1 µM in the data set with novel coronavirus (Vero, Positive control group, 1 μM, read-out: Average inhibition rate (%)) was found to be 99.9%. Moreover, the inhibition at 3 µM in the data set on novel coronavirus (Vero, Positive control group, 3 μM, read-out: Average inhibition rate (%)) was 100%. In addition, the inhibition at 10 µM in the data set with novel coronavirus (Vero, Positive control group, 10 μM, read-out: Average inhibition rate (%)) is 100%. Also, in the data set with novel coronavirus (Vero, positive control group), 120 nM corresponded to half-maximal inhibition (IC50). Further, the “inhibition against the virus” value with novel coronavirus (positive control group, concentrations of 0.3 µM and above) is reported as not below 90%. Further, the CC50 at 48 h in [2] was more than 50000 nM. Further, the “toxic effect on Vero cells” value with Vero cells is reported as “no obvious toxic effect”.

B1: IL29DE (protein)
chain: MKPTTTGKGCHIGRFKSLSPQELASFKKARDALEESLKLKNWSCSSPVFPGNWDLRLLQVRERPVALEAELALTLKVLEAAAGPALEDVLDQPLHTLHHILSQLQACIQPQPTAGPRPRGRLHHWLHRLQEAPKKESAGCLEASVTFNLFRLLTRDLKYVAEGNLCLRTSTHPEST
For the molecule B1, in data set [3], the “biological activity in 14 days at 50° C.” value was “basically unchanged”. For the same molecule, the “Relative biological activity (%)” value with HEK293-ISRE-Luc cells amounted to 282%. In addition, the “EC50” value in the data set on HEK293-ISRE-Luc cells was 1.697 ng/mL. The “EC50/biological activity as compared with IL29 control (in words)” value with HEK293-ISRE-Luc cells is “increased by nearly three times”. In addition, the “Main peak (%), reversed-phase HPLC purity” value (“Main peak (%)” for short) in data set [4] (Day 7) came to 89.35%; in [4] (Day 14) it was 77.39%; in [4] (Point 0) it was 92.68%. In data set [4], the “Reduction on Day 14 as compared with Point 0 (%)” value (from here on “Reduction … (%)”) was 15.29%.

B2: IL29CS (protein)
chain: B1 chain with E162D, C166S
On to B2, for which the “EC50” value in the data set on HEK293-ISRE-Luc cells was determined as 4.639 ng/mL. The “EC50/biological activity as compared with IL29 control (in words)” value in the data set with HEK293-ISRE-Luc cells is given as “essentially no change”. In addition, the “Main peak (%)” value in [4] (Day 7) stood at 64.66%; in data set [4] (Day 14) it was 46.20%; in [4] (Point 0), 97.03%. Further, the “Reduction … (%)” value in data set [4] is listed as 50.83%. Further, the “Ion exchange purity (%)” value worked out at 97.00% in data set [5] (day 0), 89.28% in data set [5] (day 5) and 77.14% in data set [5] (day 10). The “Reversed-phase HPLC purity (%)” value in data set [5] (day 0) is listed as 95.361%; in data set [5] (day 5), 90.756%; in data set [5] (day 10), 84.30%. Besides, the “Reverse-phase purity After nebulization” value in data set [6] stood at 85.26%. In [6] (jet nebulizer, 2 ml sample), the “Reverse-phase purity Before nebulization” value is recorded as 96.65%. In addition, the “Difference between purity before and after nebulization” value in data set [6] (reverse-phase purity) was determined as 10.39%.

B3: IL29 control: IL29 wild-type protein, amino acid sequence SEQ ID NO: 1 with an additional M amino acid at the N-terminal (protein)
chain: KPTTTGKGCHIGRFKSLSPQELASFKKARDALEESLKLKNWSCSSPVFPGNWDLRLLQVRERPVALEAELALTLKVLEAAAGPALEDVLDQPLHTLHHILSQLQACIQPQPTAGPRPRGRLHHWLHRLQEAPKKESAGCLEASVTFNLFRLLTRDLKYVADGNLCLRTSTHPEST
modifications: additional N-terminal Met
On to B3, for which, in the data set with HEK293-ISRE-Luc cells, the “EC50” value is 4.783 ng/mL. Moreover, the “Main peak (%)” value in data set [4] (Day 7) is 56.70%; in data set [4] (Day 14), 34.46%; in [4] (Point 0), 85.82%. The “Reduction … (%)” value in data set [4] was 51.36%.
